These results are taken from patent US7041698B2, “Hepatitis C virus inhibitors” (Bristol-Myers Squibb Company, priority 2002, dated 2006).

Test [1] concerns HCV replicon in Huh7 cells. The experiment in a line: HCV replicon cell-based assay. Set-up: species or system HCV strain 1B. Conditions: HCV replicon, 4 days, read-out: EC50 range. The text has this: HCV Replicon Cell-based Assay
An HCV replicon whole cell system was established as described by Lohmann V, Komer F, Koch J, Herian U, Theilmann L, Bartenschlager R., Science 285(5424):110–3 (1999). This system enabled us to evaluate the effects of our HCV Protease compounds on HCV RNA replication. Briefly, using the HCV strain 1B sequence described in the Lohmann paper (Assession number:AJ238799), an HCV cDNA was generated encoding the 5′ internal ribosome entry site (IRES), the neomycin resistance gene, the EMCV (encephalomyocarditis viurs)-IRES and the HCV nonstructural proteins, NS3-NS5B, and 3′ non-translated region (NTR). In vitro transcripts of the cDNA were transfected into the human hepatoma cell line, Huh7. […] Resulting cell lines were characterized for positive and negative strand RNA production and protein production over time.
Huh7 cells, constitutively expressing the HCV replicon, were grown in Dulbecco's Modified Eagle Media (DMEM) containing 10% Fetal calf serum (FCS) and 1 mg/ml G418 (Gibco-BRL). Cells were seeded the night before (1.5×10^4 cells/well) in 96-well tissue-culture sterile plates. Compound and no compound controls were prepared in DMEM containing 4% FCS, 1:100 Penicillin/Streptomysin, 1:100 L-glutamine and 5% DMSO in the dilution plate (0.5% DMSO final concentration in the assay). Compound/DMSO mixes were added to the cells and incubated for 4 days at 37° C. After 4 days, plates were rinsed thoroughly with Phosphate-Buffered Saline (PBS) (3 times 150 μl). The cells were lysed with 25 μl of a lysis assay reagent containing the FRET peptide (RET S1, as described for the in vitro enzyme assay). The lysis assay reagent was made from 5× cell Luciferase cell culture lysis reagent (Promega #E153A) diluted to 1× with distilled water, NaCl added to 150 mM final, the FRET peptide diluted to 10 μM final from a 2 mM stock in 100% DMSO. The plate was then placed into the Cytofluor 4000 instrument which had been set to 340 nm excitation/490 emission, automatic mode for 21 cycles and the plate read in a kinetic mode. EC50 determinations were carried out as described for the IC50 determinations.
As a secondary assay, EC50 determinations from the replicon FRET assay were confirmed in a quantitative RNA assay. Cells were lyzed using the Rneasy kit (Qiagen). Purified total RNA was normalized using RiboGreen (Jones L J, Yue S T, Cheung C Y, Singer V L, Anal. Chem., 265(2):368–74 (1998)) and relative quantitation of HCV RNA expression assessed using the Taqman procedure (Kolykhalov A A, Mihalik K, Feinstone S M, Rice C M, Journal of Virology 74, 2046–2051 (2000)) and the Platinum Quantitative RT-PCR Thermoscript One-Step kit (Invitrogen cat # 11731-015). Briefly, RNA made to a volume of 5 μl (<1 ng) was added to a 20 μl Ready-Mix containing the following: 1.25× Thermoscript reaction mix (containing Magnesium Sulfate and 2-deoxynucleoside 5′-triphosphates (dNTPs)), 3 mM dNTPs, 200 nM forward primer (sequence: 5′-[…]-3′), 600 nM reverse primer (5′-[…]-3′), 100 nM probe (5′-6-FAM-[…]-BHQ-1-3′)(FAM: Fluorescein-aminohexyl amidite; BHQ: Black Hole Quencher), 1 μM Rbx reference dye (Invitrogen cat # 12223-012) and Thermoscript Plus Platinum Taq polymerase mixture. All primers were designed with ABI Prism 7700 software and obtained from Biosearch Technologies, Novato, Calif. Samples containing known concentrations of HCV RNA transcript were run as standards. Using the following cycling protocol (50° C., 30 min; 95° C., 5 min; 40 cycles of 95° C., 15 sec, 60° C., 1 min), HCV RNA expression was quantitated as described in the Perkin Elmer manual using the ABI Prism 7700 Sequence Detector.
The luciferase reporter assay was also used to confirm compound potency in the replicon. Utilization of a replicon luciferase reporter assay was first described by Krieger et al (Krieger N, Lohmann V, and Bartenschlager R, J. Virol. 75(10):4614–4624 (2001)). […]

Test [2] addresses T1, HCV NS3/4A protease complex (UniProt P27958, C1454S/C1711G, species not given).
T1 construct: fused on or other part: Three-lysine solubilising tail at the C-terminus of NS4A
The experiment in a line: Recombinant HCV NS3/4A protease complex FRET peptide assay (strain not stated). The test is classed as biochemical. The text has this: Recombinant HCV NS3/4A Protease Complex FRET Peptide Assay
The purpose of this in vitro assay was to measure the inhibition of HCV NS3 protease complexes, derived from the BMS, H77C or J416S strains, as described below, by compounds of the present invention. This assay provides an indication of how effective compounds of the present invention would be in inhibiting HCV proteolytic activity.
Serum from an HCV-infected patient was obtained from Dr. T. Wright, San Francisco Hospital. An engineered full-length cDNA (compliment deoxyribonucleic acid) template of the HCV genome (BMS strain) was constructed from DNA fragments obtained by reverse transcription-PCR (RT-PCR) of serum RNA (ribonucleic acid) and using primers selected on the basis of homology between other genotype 1a strains. From the determination of the entire genome sequence, a genotype 1a was assigned to the HCV isolate according to the classification of Simmonds et al. (See P Simmonds, K A Rose, S Graham, S W Chan, F McOmish, B C Dow, E A Follett, P L Yap and H Marsden, J. Clin. Microbiol., 31(6), 1493–1503 (1993)). […] The infectious clones, H77C (1a genotype) and J4L6S (1b genotype) were obtained from R. Purcell (NIH) and the sequences are published in Genbank (AAB67036, see Yanagi, M., Purcell, R. H., Emerson, S. U. and Bukh, J. Proc. Natl. Acad. Sci. U.S.A. 94(16),8738–8743 (1997); AF054247, see Yanagi, M., St Claire, M., Shapiro, M., Emerson, S. U., Purcell, R. H. and Bukh, J, Virology 244 (1), 161–172. (1998)).
The BMS, H77C and J4L6S strains were used for production of recombinant NS3/4A protease complexes. DNA encoding the recombinant HCV NS3/4A protease complex (amino acids 1027 to 1711) for these strains were manipulated as described by P. Gallinari et al. (see Gallinari P, Paolini C, Brennan D, Nardi C, Steinkuhler C, De Francesco R. Biochemistry. 38(17):5620–32, (1999)). Briefly, a three-lysine solubilizing tail was added at the 3′-end of the NS4A coding region. The cysteine in the P1 position of the NS4A-NS4B cleavage site (amino acid 1711) was changed to a glycine to avoid the proteolytic cleavage of the lysine tag. Furthermore, a cysteine to serine mutation was introduced by PCR at amino acid position 1454 to prevent the autolytic cleavage in the NS3 helicase domain. The variant DNA fragment was cloned in the pET21b bacterial expression vector (Novagen) and the NS3/4A complex was expressed in Escherichia. coli strain BL21 (DE3) (Invitrogen) following the protocol described by P. Gallinari et al. (see Gallinari P, Brennan D, Nardi C, Brunetti M, Tomei L, Steinkuhler C, De Francesco R., J. Virol. 72(8):6758–69 (1998)) with modifications. Briefly, NS3/4A expression was induced with 0.5 mM Isopropyl β-D-1-thiogalactopyranoside (IPTG) for 22 hr at 20° C. A typical fermentation (10L) yielded approximately 80 g of wet cell paste. The cells were resuspended in lysis buffer (10 mL/g) consisting of 25 mM N-(2-Hydroxyethyl)Piperazine-N′-(2-Ethane Sulfonic acid) (HEPES), pH7.5, 20% glycerol, 500 mM Sodium Chloride (NaCl), 0.5% Triton-X100, 1 ug/ml lysozyme, 5 mM Magnesium Chloride (MgCl2), lug/ml Dnasel, 5 mM β-Mercaptoethanol (βME), Protease inhibitor—Ethylenediamine Tetraacetic acid (EDTA) free (Roche), homogenized and incubated for 20 mins at 4° C. The homogenate was sonicated and clarified by ultra-centrifugation at 235000 g for 1 hr at 4° C. Imidazole was added to the supernatant to a final concentration of 15 mM and the pH adjusted to 8.0. The crude protein extract was loaded on a Nickel-Nitrilotriacetic acid (Ni-NTA) column pre-equilibrated with buffer B (25 mM HEPES, pH 8.0, 20% glycerol, 500 mM NaCl, 0.5% Triton-X100, 15 mM imidazole, 5 mM βME). The sample was loaded at a flow rate of 1 mL/min. The column was washed with 15 column volumes of buffer C (same as buffer B except with 0.2% Triton-X100). The protein was eluted with 5 column volumes of buffer D (same as buffer C except with 200 mM Imidazole). […]

Where [3] appears, read: HCV NS3/4A protease enzyme assay, read-out: IC50 range.
The mark [4] stands for this setting: read-out: IC50 range, HCV NS3/4A protease enzyme assay.

The structures appear in SMILES notation. Where two headings read alike, the source gives them in different places.

One may read the EC50 as the concentration at which the effect is half-maximal. With `C=CC1C[C@]1(NC(=O)[C@@H]1C[C@@H](OC(=O)Nc2ccccc2C(=O)OC)CN1C(=O)[C@@H](NC(=O)OC(C)(C)C)C(C)(C)C)C(=O)NS(=O)(=O)C1CC1` (stereo partly drawn) [Compound 30, BocNH-P3(t-BuGly)-P2(Hyp(O—CO(NH—(2-benzoic acid methyl ester))))-P1(1R,2S VinylAcca)—CONHSO2Cyclopropane], the EC50 in test [1] (Hepatitis C virus, Huh-7, 96 h) is below 100 nM. For the same molecule, the IC50 in test [2] (setting [3]) is below 100 nM.

`C=CC1C[C@]1(NC(=O)[C@@H]1C[C@@H](OC(=O)Nc2cc(C(=O)OCC)ccc2N2CCCCC2)CN1C(=O)[C@@H](NC(=O)OC(C)(C)C)C(C)(C)C)C(=O)NS(=O)(=O)C1CC1` (stereo partly drawn) [Compound 91, BocNH-P3(t-BuGly)-P2(Hyp(O—CO(NH—(5-carboxyethyl-2-piperidin-1-ylphenyl))))-P1(1R,2S VinylAcca)—CONHSO2Cyclopropane]: the EC50 in test [1] (Hepatitis C virus, Huh-7, 96 h) was 100 to 1000 nM. The IC50 in test [2] (setting [3]) is below 100 nM.

As for `C=CC1C[C@]1(NC(=O)[C@@H]1C[C@@H](OC(=O)Nc2cc(F)ccc2-n2cccn2)CN1C(=O)[C@@H](NC(=O)OC(C)(C)C)C(C)(C)C)C(=O)NS(=O)(=O)C1CC1` (stereo partly drawn) [Compound 99, BocNH-P3(t-BuGly)-P2(Hyp(O—CO(NH—(5-Fluoro-2-pyrazol-1-yl-phenyl))))-P1(1R,2S VinylAcca)—CONHSO2Cyclopropane], the EC50 in test [1] (Hepatitis C virus, Huh-7, 96 h) was below 100 nM. For the same molecule, the IC50 in test [2] (setting [3]) is below 100 nM.

On to `C=CC1C[C@]1(NC(=O)[C@@H]1C[C@@H](OC(=O)Nc2cccc(SC)c2)CN1C(=O)[C@@H](NC(=O)OC(C)(C)C)C(C)(C)C)C(=O)NS(=O)(=O)C1CC1` (stereo partly drawn) [Compound 37, BocNH-P3(t-BuGly)-P2(Hyp(O—CO(NH—(3-methylsulfanyl-phenyl))))-P1(1R,2S VinylAcca)—CONHSO2Cyclopropane], for which the EC50 in test [1] (Hepatitis C virus, Huh-7, 96 h) lay in the range of 1000 to 10000 nM. In test [2] (setting [3]), the IC50 is below 100 nM.

Take `C=CC1C[C@]1(NC(=O)[C@@H]1C[C@@H](OC(=O)NCCc2ccccc2)CN1C(=O)[C@@H](NC(=O)OC(C)(C)C)C(C)(C)C)C(=O)NS(=O)(=O)C1CC1` (stereo partly drawn) [Compound 7, BocNH-P3(t-BuGly)-P2(Hyp(O—CO(NH-phenethyl)))-P1(1R,2S VinylAcca)—CONHSO2Cyclopropane]: the EC50 in test [1] (Hepatitis C virus, Huh-7, 96 h) was 1000 to 10000 nM. For the same molecule, the IC50 in test [2] (setting [4]) was 100 to 1000 nM.

As to `C=CC1C[C@]1(NC(=O)[C@@H]1C[C@@H](OC(=O)Nc2cscc2C(=O)OC)CN1C(=O)[C@@H](NC(=O)OC(C)(C)C)C(C)(C)C)C(=O)NS(=O)(=O)C1CC1` (stereo partly drawn) [Compound 71, BocNH-P3(t-BuGly)-P2(Hyp(O—CO(NH-4-(thiophene-3-carboxylic acid methyl ester))))-P1(1R,2S VinylAcca)—CONHSO2Cyclopropane], the EC50 in test [1] (Hepatitis C virus, Huh-7, 96 h) was 100 to 1000 nM. Also, the IC50 in test [2] (setting [3]) was below 100 nM.

For `C=CC1C[C@]1(NC(=O)[C@@H]1C[C@@H](OC(=O)N(c2ccccc2)c2ccccc2)CN1C(=O)[C@@H](NC(=O)OC(C)(C)C)C(C)(C)C)C(=O)NS(=O)(=O)C1CC1` (stereo partly drawn) [Compound 39, BocNH-P3(t-BuGly)-P2(Hyp(O—CO(N,N-diphenyl)))-P1(1R,2S VinylAcca)—CONHSO2Cyclopropane], in test [1] (Hepatitis C virus, Huh-7, 96 h), the 50% effective concentration (EC50) lay within 100 to 1000 nM. In test [2] (setting [4]), the IC50 was below 100 nM.

As to `C=CC1C[C@]1(NC(=O)[C@@H]1C[C@@H](OC(=O)Nc2ccccc2/C(=N/O)c2ccccc2)CN1C(=O)[C@@H](NC(=O)OC(C)(C)C)C(C)(C)C)C(=O)NS(=O)(=O)C1CC1` (single isomer, unassigned) [Compound 77b], the EC50 in test [1] was above 10000 nM. For the same molecule, in test [2] (setting [3]), the IC50 fell in the range of 100 to 1000 nM.

Regarding `C=CC1C[C@]1(NC(=O)[C@@H]1C[C@@H](OC(=O)Nc2ccccc2C(=O)OC(C)C)CN1C(=O)[C@@H](NC(=O)OC(C)(C)C)C(C)(C)C)C(=O)NS(=O)(=O)C1CC1` (stereo partly drawn) [Compound 48, BocNH-P3(t-BuGly)-P2(Hyp(O—CO(NH—(2-benzoic acid isopropyl ester))))-P1(1R,2S VinylAcca)—CONHSO2Cyclopropane], the EC50 in test [1] (Hepatitis C virus, Huh-7, 96 h) was 100 to 1000 nM. Besides, the IC50 in test [2] (setting [3]) is below 100 nM.

`C=C[C@@H]1C[C@]1(NC(=O)[C@@H]1C[C@@H](OC(=O)N2CCc3ccccc3C2)CN1C(=O)[C@@H](NCC1CC1)C(C)(C)C)C(=O)NS(=O)(=O)C1CC1` [Compound 101]: the EC50 in test [1] (Hepatitis C virus, Huh-7, 96 h) lay within 1000 to 10000 nM. Besides, the IC50 in test [2] (setting [3]) was below 100 nM.
